Measurements as given in patent EP0059817A1, “Serpentine, alstonine and sempervirine drugs for the specific inhibition of tumurous and cancerous cells” (priority 1981, dated 1982).

Columns and labels:
[1] = test system: Cellules "Vero" (cellules de lignée); experiment: cell culture cytotoxicity, normal cells; type: cell-based; conditions: 150 µg dès l'ensemencement (per ml of culture)
Procedure: (§1) L'effet cytotoxique spécifique, vis-à-vis des cellules tumorales utilisées, ne s'est jamais démenti au cours des très nombreuses expériences effectuées. Par contre, pour effectuer les cellules saines il a fallu des quantités d'alcaloides au moins dix fois plus grandes (plus de 2 mg/ml). (Les cultures de cellules in-vitro sans mycoplàsmes ont été effectuées dans les conditions classiques et en l'absence d'antibiotique qui pourraient fausser les résultats).
(§2) Les cellules cancéreuses et saines utilisées ne contenaient pas de mycoplasmes et le milieu de culture ne contenait pas d'antibiotique, ces derniers pouvant sensibiliser les cellules et par conséquent fausser les résultats.

[2] = test system: cellules saines; experiment: cell culture cytotoxicity, healthy cells as a group; type: cell-based; conditions: 150 µg par ml de culture
Procedure: as §1, §2

[3] = test system: Cellules L; experiment: cell culture cytotoxicity, cancer cells; type: cell-based; conditions: 150 µg dès l'ensemencement (per ml of culture)
Procedure: as §1, §2

[4] = test system: Cellules Hela; experiment: cell culture cytotoxicity, cancer cells; type: cell-based; conditions: 150 µg dès l'ensemencement (per ml of culture); culture de 3 jours
Procedure: as §1, §2

[5] = test system: Cellules K.B.; experiment: cell culture cytotoxicity, cancer cells; type: cell-based
Procedure: as §1, §2

[6] = test system: cellules cancéreuses; experiment: cell culture cytotoxicity, cancer cells as a group; type: cell-based; conditions: 150 µg par ml de culture
Procedure: as §1, §2

[7] = test system: virus de la vaccine; set-up: species or system lapin; conditions: in vivo
[8] = test system: lymphome YC 8; experiment: lymphoma YC 8 of the mouse, flavopéreirine; type: in vivo, souris BALB c; conditions: for survie (surviving mice/total): i.p. 2 x 150 µg per day, 10 days from 24 h after inoculation
Text: En ce qui concerne l'activité de la flavopéreirine vis-à-vis du lumphome YC 8 de la souris, 30 souris BALB c de 19-20 g ont été inoculées par voie intrapéritonéale par 10^4 cellules ascitiques du lymphome YC 8 fraîchement prélevées et en pleine division chez la souris.
Dix souris ont été gardées comme témoins et 20 souris ont été traitées 24 heures après inoculation.
La flavopéreirine est dissoute en milieu physiologique tamponné (pH 7,65) et deux injections par voie intrapéritonéale et par jour sont administrées, (2 x 150 µg de flavopéreirine) et ceci pendant 10 jours consécutifs.

[9] = test system: virus de la grippe; type: in vivo, souris SWISS; conditions: doses comparables
[10] = test system: ascite d'Ehrlich; experiment: Ehrlich ascites tumour in the mouse, flavopéreirine; type: in vivo, souris SWISS; conditions: for survie (surviving mice/total): i.p. 2 x 150 µg per day, 10 days from 24 h after inoculation
Procedure: En ce qui concerne l'activité de la flavopéreirine, vis-à-vis des tumeurs ascites d'Ehrlich de la souris, 30 souris SWISS de 20- 22 g ont été inoculées par voie intrapérito néale par 5 x 10^3 cellules ascite d'Ehrlich fraîchement prélevées.
Dix souris ont été gardées témoins et 20 souris ont été traitées 24 heures après l'inoculation par la flavopéreirine à raison de deux fois par jours (2 x 150 µg) par voie intrapéritonéale et pendant 10 jours consécutifs.
Les résultats du tableau VIII ci-après illustrent la survie des animaux pendant trois mois (une survie de plusieurs jours n'est pas prise en considération).

[11] = test system: Cellules primaires de reins de singe; experiment: cell culture cytotoxicity, normal cells; type: cell-based
Procedure: Des cultures de cellules saines (cellules primaires de reins de singe, cellules de lignée "Vero" et "SIRC") et des cultures de cellules cancéreuses (cellules K.B., cellules Hela, cellules Hep II et cellules L)ont reçu une dose de 200 Mg, soit de serpentine, soit d'alstonine, soit de sempervirine, par ml de culture.
as §1, §2

[12] = 150 µg dès l'ensemencement (per ml of culture)

CCc1ccc2c3[nH]c4ccccc4c3cc[n+]2c1 [flavopéreirine]
destruction des cellules [1]: - Pas de destruc-tion pendant 7 jours
destruction des cellules saines [2]: ne sont pas détruites pendant les 7 jours d'observation
destruction des cellules [3]: - Destruction to-tale en 24-48 heures.
destruction des cellules [4]: - Destruction to-tale en 24-48 heures
destruction des cellules [5, 12]: - Destruction to-tale en 24-48 heures
destruction des cellules ([5]; 200 µg/ml, en culture de 3 jours dès l'ensemencement): Destruction totale en 24-48 heures
destruction des cellules cancéreuses [6]: détruites en 24-48 heures
appearance of papules [7]: empêche l'apparition et le développement des papules virales
survie (surviving mice/total) ([8]; day 0): 20/20
survie (surviving mice/total) ([8]; day 21): 20/20
survie (surviving mice/total) ([8]; day 60): 17/20
survie (surviving mice/total) ([8]; day 90): 17/20
state of the surviving mice ([8]; voie I.P., more than three months of observation): développement étant tout à fait normal
survie de trois mois, share of treated mice ([8]; voie sous-cutanée, 2 x 150 µg per day, 10 days): 70-80%
activity against influenza compared with sempervirine [9]: résultats tout à fait comparables
survie (surviving mice/total) ([10]; day 0): 20/20
survie (surviving mice/total) ([10]; day 24): 17/20
survie (surviving mice/total) ([10]; day 60): 11/20
survie (surviving mice/total) ([10]; day 90): 11/20
guérison (in words) ([10]; flavopéreirine alone, three months of observation, same results in souris BALB c): permet la guérison d'un important pourcentage de souris
destruction des cellules [11, 12]: - Pas de destruc-tion pendant 7 jours
destruction des cellules ([11]; 200 µg/ml, en culture de 7 jours dès l'ensemencement): Pas de destruction pendant 8 jours
